{"source": "patent US12503713B1", "about": "“Stabilization of tryptamines by denaturing enzymes, optimizing ionization states, and controlling confounding variables” (Convergent Health Sciences LLC, priority 2025, dated 2025)", "key": {"[1]": {"assay": "spontaneous dephosphorylation of phosphoryloxytryptamines in phosphate buffers, one hour at 85 degrees Celsius, HPLC at 220 nanometers (Example 1)"}, "[2]": {"conditions": "cited from earlier work"}, "[3]": {"test_system": "phosphatase enzyme", "assay": "colorimetric assay with a para-nitrophenyl phosphate substrate for residual phosphatase enzyme activity", "type": "biochemical, Psilocybe cubensis", "conditions": "supernatants of the extracts", "from_the_text": "The denaturation of relevant phosphatase enzymes may be assessed, for example, by performing a colorimetric assay with a para-nitrophenyl phosphate substrate. Para-nitrophenyl phosphate comprises a phosphorylated aromatic, which is chemically similar to the phosphorylated indole of a phosphoryloxytryptamine. Colorimetric assays performed with a para-nitrophenyl phosphate substrate therefore provide suitable methods to assess […] that are relevant to this disclosure.\n(§1) The molecular weights of the analytes are determined by electrospray ionization mass spectroscopy (ESI-MS) operating in positive ion mode. The supernatants are also used for a colorimetric assay with a para-nitrophenyl phosphate substrate to identify residual phosphatase enzyme activity and for a colorimetric assay with a syringaldazine substrate to identify any residual laccase enzyme activity."}, "[4]": {"test_system": "laccase enzyme", "assay": "colorimetric assay with a syringaldazine substrate for residual laccase enzyme activity", "type": "biochemical, Psilocybe cubensis", "conditions": "supernatants of the extracts", "from_the_text": "The denaturation of relevant laccase enzymes may be assessed, for example, by performing a colorimetric assay with a laccase enzyme substrate such as syringaldazine or 2,2′-azino-bis(3-ethylbenzothiazoline-6-sulfonate) (ABTS). Syringaldazine comprises an aromatic structure with pendant hydroxyl groups, which is chemically similar to the indole of a hydroxytryptamine, and ABTS comprises a benzothiazoline, which is chemically similar to the indole of tryptamines generally. Colorimetric assays performed with a syringaldazine or ABTS substrate therefore provide suitable methods to assess laccase activity that are relevant to this disclosure.\nas §1"}, "[5]": {"conditions": "cited from earlier work", "remark": "listed apart in the source"}, "[6]": {"conditions": "pH of 2.0 relative to pH of 3.0"}, "[7]": {"conditions": "pH of 7.0 relative to pH of 6.0"}, "[8]": {"conditions": "pH of 3.0 relative to pH of 2.0"}, "[9]": {"conditions": "pH of 6.0 relative to pH of 7.0"}}, "data": [{"compound": "NCCc1c[nH]c2cccc(O)c12", "note": "[4-HT, 3-(2-aminoethyl)-1H-indol-4-ol]", "values": [{"measurement": "absorbance detected for the hydroxytryptamine", "setting": "[1]; [6]", "value": "greater absorbance"}, {"measurement": "absorbance detected for the hydroxytryptamine", "setting": "[1]; [7]", "value": "greater absorbance"}]}, {"compound": "C[N+](C)(C)CCc1c[nH]c2cccc(O)c12", "note": "[4-hydroxy-TMT, [2-(4-hydroxy-1H-indol-3-yl)ethyl]-trimethylazanium]", "values": [{"measurement": "absorbance detected for the hydroxytryptamine", "setting": "[1]; [6]", "value": "greater absorbance"}, {"measurement": "absorbance detected for the hydroxytryptamine", "setting": "[1]; [7]", "value": "greater absorbance"}]}, {"compound": "O=C(O)Cc1c[nH]c2ccccc12", "note": "[Indole-3-acetic acid, indole-3-acetic acid]", "values": [{"measurement": "solubility in water", "setting": "[2]", "value": "insoluble in water"}]}, {"compound": "C[N+](C)(C)CCc1c[nH]c2cccc(OP(=O)(O)O)c12", "note": "[aeruginascin, [2-(4-phosphonooxy-1H-indol-3-yl)ethyl]-trimethylazanium]", "values": [{"measurement": "absorbance detected for the phosphoryloxytryptamine", "setting": "[1]; [8]", "value": "Greater absorbance"}, {"measurement": "absorbance detected for the phosphoryloxytryptamine", "setting": "[1]; [9]", "value": "Greater absorbance"}]}, {"compound": "N.N.O=S(=O)(O)O", "note": "[ammonium sulfate]", "values": [{"measurement": "phosphatase enzyme activity relative to the water control", "setting": "[3]", "value": "significantly less"}, {"measurement": "laccase enzyme activity relative to the water control", "setting": "[4]", "value": "significantly less"}]}, {"compound": "CNCCc1c[nH]c2cccc(OP(=O)(O)O)c12", "note": "[baeocystin, [2-(4-phosphonooxy-1H-indol-3-yl)ethyl]-methylazanium]", "values": [{"measurement": "absorbance detected for the phosphoryloxytryptamine", "setting": "[1]; [8]", "value": "Greater absorbance"}, {"measurement": "absorbance detected for the phosphoryloxytryptamine", "setting": "[1]; [9]", "value": "Greater absorbance"}]}, {"compound": "Cl.N=C(N)N", "note": "[guanidinium, guanidinium chloride]", "values": [{"measurement": "phosphatase enzyme activity relative to the water control", "setting": "[3]", "value": "significantly less"}, {"measurement": "laccase enzyme activity relative to the water control", "setting": "[4]", "value": "significantly less"}]}, {"compound": "NCCc1c[nH]c2cccc(OP(=O)(O)O)c12", "note": "[norbaeocystin, 2-(4-phosphonooxy-1H-indol-3-yl)ethylazanium]", "values": [{"measurement": "absorbance detected for the phosphoryloxytryptamine", "setting": "[1]; [8]", "value": "Greater absorbance"}, {"measurement": "absorbance detected for the phosphoryloxytryptamine", "setting": "[1]; [9]", "value": "Greater absorbance"}]}, {"compound": "CNCCc1c[nH]c2cccc(O)c12", "note": "[norpsilocin, 3-[2-(methylamino)ethyl]-1H-indol-4-ol]", "values": [{"measurement": "absorbance detected for the hydroxytryptamine", "setting": "[1]; [6]", "value": "greater absorbance"}, {"measurement": "absorbance detected for the hydroxytryptamine", "setting": "[1]; [7]", "value": "greater absorbance"}]}, {"compound": "CCCCCCCCO[C@@H]1O[C@H](CO)[C@@H](O)[C@H](O)[C@H]1O", "note": "[octyl glucoside, octyl β-D-glucopyranoside]", "values": [{"measurement": "phosphatase enzyme activity relative to the water control", "setting": "[3]", "value": "significantly less"}, {"measurement": "laccase enzyme activity relative to the water control", "setting": "[4]", "value": "significantly less"}]}, {"compound": "CN(C)CCc1c[nH]c2cccc(O)c12", "note": "[psilocin, 3-[2-(dimethylamino)ethyl]-1H-indol-4-ol]", "values": [{"measurement": "absorbance detected for the hydroxytryptamine", "setting": "[1]; [6]", "value": "greater absorbance"}, {"measurement": "absorbance detected for the hydroxytryptamine", "setting": "[1]; [7]", "value": "greater absorbance"}]}, {"compound": "CN(C)CCc1c[nH]c2cccc(OP(=O)(O)O)c12", "note": "[psilocybin]", "values": [{"measurement": "pKa of the azanium of psilocybin", "setting": "[5]; conjugate acid of the amino", "value": "about 10.4"}, {"measurement": "pKa of the dihydrogen phosphate of psilocybin (lowest pKa)", "setting": "[5]; first phosphate pKa", "value": "about 1.3"}]}, {"compound": "CCCCCCCCCCCCOS(=O)(=O)[O-].[Na+]", "note": "[sodium dodecyl sulfate]", "values": [{"measurement": "phosphatase enzyme activity relative to the water control", "setting": "[3]", "value": "significantly less"}, {"measurement": "laccase enzyme activity relative to the water control", "setting": "[4]", "value": "significantly less"}]}, {"compound": "OCCc1c[nH]c2ccccc12", "note": "[tryptophol]", "values": [{"measurement": "solubility in water", "setting": "[2]", "value": "insoluble in water"}]}, {"compound": "NC(N)=O", "note": "[urea]", "values": [{"measurement": "phosphatase enzyme activity relative to the water control", "setting": "[3]", "value": "significantly less"}, {"measurement": "laccase enzyme activity relative to the water control", "setting": "[4]", "value": "significantly less"}]}, {"compound": "Chitin", "values": [{"measurement": "solubility in water", "setting": "[2]", "value": "insoluble in water"}]}, {"compound": "polyethylene glycol 4-(2,4,4-trimethylpent-2-yl)phenyl ether [Triton X-100]", "values": [{"measurement": "phosphatase enzyme activity relative to the water control", "setting": "[3]", "value": "significantly less"}, {"measurement": "laccase enzyme activity relative to the water control", "setting": "[4]", "value": "significantly less"}]}]}
